Source: PMC3962780 (ChemMedChem, 2013)

Columns and labels:
MCF-7 ER(+) cells = experiment: Cytotoxicity assay; format: cell-based, human
MCF-7 cells = details: MCF-7, 48 h, 4-OHT 10 μM; ref Bicaku et al. [9b]; cited from earlier work
[1] = biological target: T1, recombinant HDAC8 (purified from E. coli) (Homo sapiens, UniProt Q9BY41); experiment: HDAC activity assay, recombinant HDAC8; format: biochemical
T1 sequence (Q9BY41 1-377): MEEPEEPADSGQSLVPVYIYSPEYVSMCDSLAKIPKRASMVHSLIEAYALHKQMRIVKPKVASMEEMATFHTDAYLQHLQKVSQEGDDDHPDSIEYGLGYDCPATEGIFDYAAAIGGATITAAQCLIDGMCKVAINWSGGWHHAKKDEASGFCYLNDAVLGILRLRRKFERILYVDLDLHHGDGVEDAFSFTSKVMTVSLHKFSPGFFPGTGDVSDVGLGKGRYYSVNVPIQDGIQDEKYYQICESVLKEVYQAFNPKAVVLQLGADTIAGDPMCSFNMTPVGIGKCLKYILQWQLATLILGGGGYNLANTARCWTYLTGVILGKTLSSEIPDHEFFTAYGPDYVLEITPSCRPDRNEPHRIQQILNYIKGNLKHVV

human recombinant HDAC1 = human recombinant HDAC1 (Homo sapiens, UniProt Q13547); experiment: HDAC activity assay, recombinant HDAC1; format: biochemical
human recombinant HDAC1, sequence (Q13547 whole entry): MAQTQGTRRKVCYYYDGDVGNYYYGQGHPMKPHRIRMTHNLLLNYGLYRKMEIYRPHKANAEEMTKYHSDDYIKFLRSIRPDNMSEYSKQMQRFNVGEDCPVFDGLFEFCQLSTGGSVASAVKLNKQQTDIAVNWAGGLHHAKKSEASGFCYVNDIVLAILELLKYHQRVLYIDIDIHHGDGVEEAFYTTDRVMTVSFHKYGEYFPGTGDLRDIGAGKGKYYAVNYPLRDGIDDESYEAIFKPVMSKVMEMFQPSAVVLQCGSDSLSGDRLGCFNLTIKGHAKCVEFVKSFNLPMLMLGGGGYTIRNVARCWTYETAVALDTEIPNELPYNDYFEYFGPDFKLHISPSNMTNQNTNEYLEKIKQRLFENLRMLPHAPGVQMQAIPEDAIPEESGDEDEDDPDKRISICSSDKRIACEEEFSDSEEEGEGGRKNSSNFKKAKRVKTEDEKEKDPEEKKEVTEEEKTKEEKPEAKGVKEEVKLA

human recombinant HDAC3 = human recombinant HDAC3 (Homo sapiens, UniProt O15379); experiment: HDAC activity assay, recombinant HDAC3; format: biochemical
human recombinant HDAC3, sequence (O15379 whole entry): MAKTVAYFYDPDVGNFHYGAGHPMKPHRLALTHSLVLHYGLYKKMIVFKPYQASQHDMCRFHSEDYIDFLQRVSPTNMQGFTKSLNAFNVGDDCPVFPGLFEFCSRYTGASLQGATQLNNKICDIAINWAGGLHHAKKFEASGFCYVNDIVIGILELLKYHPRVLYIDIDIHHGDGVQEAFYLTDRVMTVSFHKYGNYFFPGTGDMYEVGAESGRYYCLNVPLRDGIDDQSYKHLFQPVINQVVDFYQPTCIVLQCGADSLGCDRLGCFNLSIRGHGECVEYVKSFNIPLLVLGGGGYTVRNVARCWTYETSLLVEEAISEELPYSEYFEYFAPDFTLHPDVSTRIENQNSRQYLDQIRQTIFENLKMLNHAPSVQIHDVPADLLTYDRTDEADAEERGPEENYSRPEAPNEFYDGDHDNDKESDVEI
human recombinant HDAC3, sequence (Q9Y618 395-489 partner limits assumed): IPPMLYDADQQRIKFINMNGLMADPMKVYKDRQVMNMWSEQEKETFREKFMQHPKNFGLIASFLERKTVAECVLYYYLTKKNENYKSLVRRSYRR

human recombinant HDAC2 = human recombinant HDAC2 (Homo sapiens, UniProt Q92769); experiment: HDAC activity assay, recombinant HDAC2; format: biochemical
human recombinant HDAC2, sequence (Q92769 whole entry): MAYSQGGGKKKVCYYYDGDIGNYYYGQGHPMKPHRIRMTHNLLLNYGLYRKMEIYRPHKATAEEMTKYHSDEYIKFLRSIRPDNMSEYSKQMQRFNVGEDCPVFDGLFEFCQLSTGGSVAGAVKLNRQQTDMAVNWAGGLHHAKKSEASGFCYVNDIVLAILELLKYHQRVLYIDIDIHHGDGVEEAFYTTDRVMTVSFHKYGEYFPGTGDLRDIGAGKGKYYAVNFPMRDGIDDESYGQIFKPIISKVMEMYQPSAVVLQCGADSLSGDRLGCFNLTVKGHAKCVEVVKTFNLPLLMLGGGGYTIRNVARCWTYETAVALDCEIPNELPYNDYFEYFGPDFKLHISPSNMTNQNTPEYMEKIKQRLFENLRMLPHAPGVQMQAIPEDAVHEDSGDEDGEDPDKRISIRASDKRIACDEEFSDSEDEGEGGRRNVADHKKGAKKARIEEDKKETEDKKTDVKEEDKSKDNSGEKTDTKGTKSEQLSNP

ERα [2] = biological target: T2, ERα (Homo sapiens, UniProt P03372); experiment: Inhibition of 17β estradiol induced ERE-luciferase activity in MCF-7 cells; format: cell-based; details: cotreatment with E2
T2 sequence (P03372 1-595): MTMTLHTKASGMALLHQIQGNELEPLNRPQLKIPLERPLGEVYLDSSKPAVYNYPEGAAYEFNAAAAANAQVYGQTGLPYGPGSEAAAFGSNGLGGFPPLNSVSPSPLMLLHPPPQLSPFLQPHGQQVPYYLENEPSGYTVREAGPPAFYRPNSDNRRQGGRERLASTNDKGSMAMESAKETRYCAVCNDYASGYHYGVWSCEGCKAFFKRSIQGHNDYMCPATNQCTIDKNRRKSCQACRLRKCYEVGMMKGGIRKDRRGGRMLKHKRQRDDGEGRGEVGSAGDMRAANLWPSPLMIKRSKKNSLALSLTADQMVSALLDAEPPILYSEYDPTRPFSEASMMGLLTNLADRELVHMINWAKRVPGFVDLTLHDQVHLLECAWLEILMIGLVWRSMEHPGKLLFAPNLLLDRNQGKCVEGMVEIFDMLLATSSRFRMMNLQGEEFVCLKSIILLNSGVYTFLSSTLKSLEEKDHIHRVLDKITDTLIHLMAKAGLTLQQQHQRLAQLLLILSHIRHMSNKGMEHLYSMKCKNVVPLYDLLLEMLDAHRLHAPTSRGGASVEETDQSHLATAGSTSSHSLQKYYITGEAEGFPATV

MDA-MB-231 ER(−) cells = experiment: Cytotoxicity assay; format: cell-based, human; details: hybrid molecules 10 μM; 24, 48 and 72 h
ERα [3] = biological target: T2, ERα; experiment: Ishikawa alkaline phosphatase assay; format: cell-based

CC/C(=C(\c1ccc(O)cc1)c1ccc(OCCN(C)C)cc1)c1ccccc1 [4OHT, 4-hydroxytamoxifen]
Cell death, combination with SAHA (MCF-7 ER(+) cells; ER(+) MCF-7 cells, 72 h combination treatment): modest but significantly increased cell death | Increase in apoptosis in combination with SAHA over SAHA alone (MCF-7 cells): approximately 10%

O=C(CCCCCNC(=O)c1c(-c2ccc(O)cc2)sc2cc(O)ccc12)NO [8a, 6-hydroxy-N-(6-(hydroxyamino)-6-oxohexyl)-2-(4-hydroxyphenyl)benzo[b]thiophene-3-carboxamide]
IC50 [1]: 719 ± 63 nM | IC50 (human recombinant HDAC1): 596 ± 51 nM | IC50 (human recombinant HDAC3): 214 ± 6 nM | IC50 (human recombinant HDAC2): 2440 ± 20 nM

O=C(CCCCCCNC(=O)c1c(-c2ccc(O)cc2)sc2cc(O)ccc12)NO [8b, 6-hydroxy-N-(7-(hydroxyamino)-7-oxoheptyl)-2-(4-hydroxyphenyl)benzo[b]thiophene-3-carboxamide]
Inhibition of estrogenic response (antiestrogenic activity), ERE-luciferase reporter (ERα [2]): concentration dependent inhibition of estrogenic response

O=C(CCCCn1cc(-c2ccc(C(=O)c3c(-c4ccc(O)cc4)sc4cc(O)ccc34)cc2)nn1)NO [15a, N-hydroxy-5-(4-(4-(6-hydroxy-2-(4-hydroxyphenyl)benzo[b]thiophene-3-carbonyl)phenyl)-1H-1,2,3-triazol-1-yl)pentanamide]
IC50 [1]: 23500 ± 1500 nM | IC50 (human recombinant HDAC1): 8390 ± 300 nM | IC50 (human recombinant HDAC3): 5740 ± 530 nM | IC50 (human recombinant HDAC2): 19200 ± 650 nM

O=C(CCCCCn1cc(-c2ccc(C(=O)c3c(-c4ccc(O)cc4)sc4cc(O)ccc34)cc2)nn1)NO [15b, N-hydroxy-6-(4-(4-(6-hydroxy-2-(4-hydroxyphenyl)benzo[b]thiophene-3-carbonyl)phenyl)-1H-1,2,3-triazol-1-yl)hexanamide]
Inhibition of estrogenic response (antiestrogenic activity), ERE-luciferase reporter (ERα [2]): concentration dependent inhibition of estrogenic response | Cell death in MDA-MB-231 ER(−) cells (MDA-MB-231 ER(−) cells): caused significant cell death | IC50 (ERα [3]): 2900 ± 300 nM

Oc1ccc(-c2sc3cc(O)ccc3c2Oc2ccc(OCCN3CCCCC3)cc2)cc1 [DMA, desmethylarzoxifene]
Toxicity towards MCF-7 cells (MCF-7 ER(+) cells; 10 μM, 72 h treatment): toxic

O=C(Nc1cc(-c2ccccc2)ccc1O)c1c(-c2ccc(O)cc2)sc2cc(O)ccc12 [compound 10, 6-hydroxy-N-[4-hydroxy-(1,1′-biphenyl)-3-yl]-2-(hydroxyphenyl)benzo[b]thiophene-3-carboxamide]
% inhibition of HDAC1 (human recombinant HDAC1; pre-incubation 3 h): 21–34% | % inhibition of HDAC3 (human recombinant HDAC3; pre-incubation 3 h): 0–12%
